# Data reported in US20070128217A1 (priority 2003, published 2007).
# Key:
# [1] = test system: antibodies in sera from SARS patients (sera 1a, 1b, 2, 6, 37, 62, London, SARS-yellow, SARS-green); assay type: binding, human; design: Binding of serum 6 to linear peptides of protein X1 of SARS-CoV Urbani / Binding of serum 37 to linear peptides of protein X1 of SARS-CoV Urbani / Binding of serum 6 to looped/cyclic peptide (PEPSCAN-ELISA) / Binding of serum 37 to looped/cyclic peptide (PEPSCAN-ELISA) / Binding of serum 37 to looped/cyclic peptides of protein X1 of SARS-CoV Urbani / Binding of serum 6 to linear peptides of protein X2 / Binding of serum 37 to linear peptides of protein X2 / Binding of serum 37 to looped/cyclic peptides of protein X2 of SARS-CoV Urbani / Binding of serum 6 to linear peptides of protein M of SARS-CoV Urbani / Binding of serum 37 to linear peptides of protein M of SARS-CoV Urbani / Binding of serum 6 to looped/cyclic peptides of protein M of SARS-CoV Urbani / Binding of serum 37 to looped/cyclic peptides of protein M of SARS-CoV Urbani / Binding of serum 6 to linear peptides of protein X3 of SARS-CoV Urbani / Binding of serum 37 to linear peptides of protein X3 of SARS-CoV Urbani / Binding of serum 37 to looped/cyclic peptides of protein X3 of SARS-CoV Urbani / Binding of serum 6 to linear peptides of protein X4 of SARS-CoV Urbani / Binding of serum 37 to linear peptides of protein X4 of SARS-CoV Urbani / Binding of serum 37 to looped/cyclic peptides of protein X4 of SARS-CoV Urbani / Binding of serum 6 to linear peptides of protein X5 of SARS-CoV Urbani / Binding of serum 37 to linear peptides of protein X5 of SARS-CoV Urbani / Binding of serum 37 to looped/cyclic peptides of protein X5 of SARS-CoV Urbani / Binding of serum 6 to linear peptides of protein N of SARS-CoV Urbani / Binding of serum 37 to linear peptides of protein N of SARS-CoV Urbani / Binding of serum 6 to linear peptide (PEPSCAN-ELISA) / Binding of serum 1a to looped/cyclic peptides of protein N of SARS-CoV Urbani / Binding of serum 1b to looped/cyclic peptides of protein N of SARS-CoV Urbani / Binding of serum 2 to looped/cyclic peptides of protein N of SARS-CoV Urbani / Binding of serum 6 to looped/cyclic peptides of protein N of SARS-CoV Urbani / Binding of serum 37 to looped/cyclic peptides of protein N of SARS-CoV Urbani / Binding of serum 62 to looped/cyclic peptides of protein N of SARS-CoV Urbani / Binding of serum London to looped/cyclic peptides of protein N of SARS-CoV Urbani / Binding of serum SARS-green to looped/cyclic peptides of protein N of SARS-CoV Urbani: unit not given here
# [2] = test system: rabbit serum obtained by immunizing a rabbit with the SARS-CoV strain Frankfurt 1; assay type: binding; design: Binding of a rabbit serum to linear peptides / Binding of a rabbit serum to looped peptides / Rabbit serum linear peptides / Rabbit serum looped peptides / Binding of a rabbit serum to linear peptides of protein N of SARS-CoV Urbani (Rabbit serum linear peptides) / Binding of a rabbit serum to looped/cyclic peptides of protein N of SARS-CoV Urbani (Rabbit serum looped peptides): unit not given here
# [3] = test system: control sera (pooled serum of ten healthy LUMC hospital workers; commercial negative donor pooled serum from the Dutch bloodbank); assay type: binding, human; design: Binding of Control serum LUMC to linear peptides / Binding of Control serum Blood-bank to linear peptides / Binding of Control serum LUMC to looped peptides / Binding of Control Serum Blood-Bank to Looped peptides / Binding of Control serum LUMC to linear peptides of the protein M of SARS-CoV Urbani / Binding of Control serum Blood-bank to linear peptides of the protein M of SARS-CoV Urbani / Binding of Control serum LUMC to looped peptides of the protein M of SARS-CoV Urbani / Binding of Control Serum Blood-Bank to Looped peptides of the protein M of SARS-CoV Urbani: unit not given here
sequence,measurement,setting,value
VPLRGTIVTRPLMES,Binding of serum 1a to linear peptides of protein M of SARS-CoV Urbani,[1],0.7
same,Binding of serum 1b to linear peptides of protein M of SARS-CoV Urbani,[1],0.6
same,Binding of serum 2 to linear peptides of protein M of SARS-CoV Urbani,[1],0.7
same,Binding of serum 6 to linear peptides of protein M of SARS-CoV Urbani,[1],0.4
same,Binding of serum 37 to linear peptides of protein M of SARS-CoV Urbani,[1],0.6
same,Binding of serum 62 to linear peptides of protein M of SARS-CoV Urbani,[1],0.5
same,Binding of serum London to linear peptides of protein M of SARS-CoV Urbani,[1],0.4
same,Binding of serum SARS-green to linear peptides of protein M of SARS-CoV Urbani,[1],0.5
same,Binding of serum SARS-yellow to linear peptides of protein M of SARS-CoV Urbani,[1],0.4
same,"Recognition of the peptide by sera of SARS-CoV infected individuals, and form (linear, looped/cyclic) in which it is recognized",[1],recognized in looped/cyclic form
same,Rabbit serum linear peptides,[2],0.1
same,Rabbit serum looped peptides,[2],0.6
same,Binding of Control Serum Blood-Bank to Looped peptides of the protein M of SARS-CoV Urbani,[3],0.6
same,Binding of Control serum Blood-bank to linear peptides of the protein M of SARS-CoV Urbani,[3],0.9
same,Binding of Control serum LUMC to linear peptides of the protein M of SARS-CoV Urbani,[3],0.6
same,Binding of Control serum LUMC to looped peptides of the protein M of SARS-CoV Urbani,[3],0.7
VQIHTIDGSSGVANP,Binding of serum 1a to linear peptides of protein X1 of SARS-CoV Urbani,[1],0.7
same,Binding of serum 1a to looped/cyclic peptides of protein X1 of SARS-CoV Urbani,[1],0.4
same,Binding of serum 1b to linear peptides of protein X1 of SARS-CoV Urbani,[1],0.5
same,Binding of serum 1b to looped/cyclic peptides of protein X1 of SARS-CoV Urbani,[1],0.4
same,Binding of serum 2 to linear peptides of protein X1 of SARS-CoV Urbani,[1],0.6
same,Binding of serum 2 to looped/cyclic peptides of protein X1 of SARS-CoV Urbani,[1],0.3
same,Binding of serum 6 to linear peptides of protein X1 of SARS-CoV Urbani,[1],0.6
same,Binding of serum 6 to looped/cyclic peptides of protein X1 of SARS-CoV Urbani,[1],0.3
same,Binding of serum 37 to linear peptides of protein X1 of SARS-CoV Urbani,[1],0.7
same,Binding of serum 37 to looped/cyclic peptides of protein X1 of SARS-CoV Urbani,[1],0.4
same,Binding of serum 62 to linear peptides of protein X1 of SARS-CoV Urbani,[1],0.6
same,Binding of serum 62 to looped/cyclic peptides of protein X1 of SARS-CoV Urbani,[1],0.5
same,Binding of serum London to linear peptides of protein X1 of SARS-CoV Urbani,[1],0.3
same,Binding of serum London to looped/cyclic peptides of protein X1 of SARS-CoV Urbani,[1],0.2
same,Binding of serum SARS-green to linear peptides of protein X1 of SARS-CoV Urbani,[1],0.2
same,Binding of serum SARS-green to looped/cyclic peptides of protein X1 of SARS-CoV Urbani,[1],0.3
same,Binding of serum SARS-yellow to linear peptides of protein X1 of SARS-CoV Urbani,[1],0.4
same,Binding of serum SARS-yellow to looped/cyclic peptides of protein X1 of SARS-CoV Urbani,[1],0.1
same,Binding of a rabbit serum to linear peptides,[2],0.1
same,Binding of a rabbit serum to looped peptides,[2],0.4
same,Binding of Control Serum Blood-Bank to Looped peptides,[3],0.3
same,Binding of Control serum Blood-bank to linear peptides,[3],0.5
same,Binding of Control serum LUMC to linear peptides,[3],0.5
same,Binding of Control serum LUMC to looped peptides,[3],0.4
VQTCTPNVTINCQDP,Binding of serum 1a to linear peptides of protein X5 of SARS-CoV Urbani,[1],0.7
same,Binding of serum 1a to looped/cyclic peptides of protein X5 of SARS-CoV Urbani,[1],0.6
same,Binding of serum 1b to linear peptides of protein X5 of SARS-CoV Urbani,[1],0.8
same,Binding of serum 1b to looped/cyclic peptides of protein X5 of SARS-CoV Urbani,[1],0.5
same,Binding of serum 2 to linear peptides of protein X5 of SARS-CoV Urbani,[1],0.7
same,Binding of serum 2 to looped/cyclic peptides of protein X5 of SARS-CoV Urbani,[1],0.7
same,Binding of serum 6 to linear peptides of protein X5 of SARS-CoV Urbani,[1],0.8
same,Binding of serum 6 to looped/cyclic peptides of protein X5 of SARS-CoV Urbani,[1],0.2
same,Binding of serum 37 to linear peptides of protein X5 of SARS-CoV Urbani,[1],0.7
same,Binding of serum 37 to looped/cyclic peptides of protein X5 of SARS-CoV Urbani,[1],0.6
same,Binding of serum 62 to linear peptides of protein X5 of SARS-CoV Urbani,[1],0.8
same,Binding of serum 62 to looped/cyclic peptides of protein X5 of SARS-CoV Urbani,[1],0.6
same,Binding of serum London to linear peptides of protein X5 of SARS-CoV Urbani,[1],0.8
same,Binding of serum London to looped/cyclic peptides of protein X5 of SARS-CoV Urbani,[1],0.3
same,Binding of serum SARS-green to linear peptides of protein X5 of SARS-CoV Urbani,[1],0.7
same,Binding of serum SARS-green to looped/cyclic peptides of protein X5 of SARS-CoV Urbani,[1],0.3
same,Binding of serum SARS-yellow to linear peptides of protein X5 of SARS-CoV Urbani,[1],0.3
same,Binding of serum SARS-yellow to looped/cyclic peptides of protein X5 of SARS-CoV Urbani,[1],0.3
same,Rabbit serum linear peptides,[2],0.5
same,Rabbit serum looped peptides,[2],0.4
same,Binding of Control Serum Blood-Bank to Looped peptides,[3],0.6
same,Binding of Control serum Blood-bank to linear peptides,[3],0.6
same,Binding of Control serum LUMC to linear peptides,[3],0.5
same,Binding of Control serum LUMC to looped peptides,[3],0.4
VSPKLFIRQEEVQQE,Binding of serum 1a to linear peptides of protein X4 of SARS-CoV Urbani,[1],0.7
same,Binding of serum 1a to looped/cyclic peptides of protein X4 of SARS-CoV Urbani,[1],0.6
same,Binding of serum 1b to linear peptides of protein X4 of SARS-CoV Urbani,[1],0.5
same,Binding of serum 1b to looped/cyclic peptides of protein X4 of SARS-CoV Urbani,[1],1.0
same,Binding of serum 2 to linear peptides of protein X4 of SARS-CoV Urbani,[1],0.3
same,Binding of serum 2 to looped/cyclic peptides of protein X4 of SARS-CoV Urbani,[1],0.8
same,Binding of serum 6 to linear peptides of protein X4 of SARS-CoV Urbani,[1],0.3
same,Binding of serum 6 to looped/cyclic peptides of protein X4 of SARS-CoV Urbani,[1],0.4
same,Binding of serum 37 to linear peptides of protein X4 of SARS-CoV Urbani,[1],0.7
same,Binding of serum 37 to looped/cyclic peptides of protein X4 of SARS-CoV Urbani,[1],0.9
same,Binding of serum 62 to linear peptides of protein X4 of SARS-CoV Urbani,[1],0.7
same,Binding of serum 62 to looped/cyclic peptides of protein X4 of SARS-CoV Urbani,[1],0.8
same,Binding of serum London to linear peptides of protein X4 of SARS-CoV Urbani,[1],0.8
same,Binding of serum London to looped/cyclic peptides of protein X4 of SARS-CoV Urbani,[1],0.6
same,Binding of serum SARS-green to linear peptides of protein X4 of SARS-CoV Urbani,[1],0.6
same,Binding of serum SARS-green to looped/cyclic peptides of protein X4 of SARS-CoV Urbani,[1],1.2
same,Binding of serum SARS-yellow to linear peptides of protein X4 of SARS-CoV Urbani,[1],0.3
same,Binding of serum SARS-yellow to looped/cyclic peptides of protein X4 of SARS-CoV Urbani,[1],0.5
same,Rabbit serum linear peptides,[2],0.4
same,Rabbit serum looped peptides,[2],0.3
same,Binding of Control Serum Blood-Bank to Looped peptides,[3],0.4
same,Binding of Control serum Blood-bank to linear peptides,[3],0.5
same,Binding of Control serum LUMC to linear peptides,[3],0.4
same,Binding of Control serum LUMC to looped peptides,[3],0.7
VSTNLCTHSFRKKQV,Binding of serum 1a to looped/cyclic peptides of protein X2 of SARS-CoV Urbani,[1],0.5
same,Binding of serum 1b to looped/cyclic peptides of protein X2 of SARS-CoV Urbani,[1],0.3
same,Binding of serum 2 to looped/cyclic peptides of protein X2 of SARS-CoV Urbani,[1],0.6
same,Binding of serum 6 to looped/cyclic peptides of protein X2 of SARS-CoV Urbani,[1],0.5
same,Binding of serum 37 to looped/cyclic peptides of protein X2 of SARS-CoV Urbani,[1],0.5
same,Binding of serum 62 to looped/cyclic peptides of protein X2 of SARS-CoV Urbani,[1],0.6
same,Binding of serum London to looped/cyclic peptides of protein X2 of SARS-CoV Urbani,[1],0.1
same,Binding of serum SARS-green to looped/cyclic peptides of protein X2 of SARS-CoV Urbani,[1],0.3
same,Binding of serum SARS-yellow to looped/cyclic peptides of protein X2 of SARS-CoV Urbani,[1],0.4
same,"Recognition of the peptide by sera of SARS-CoV infected individuals, and form (linear, looped/cyclic) in which it is recognized",[1],recognized in linear form
same,Binding of a rabbit serum to linear peptides,[2],0.3
same,Binding of a rabbit serum to looped peptides,[2],0.2
same,Binding of Control Serum Blood-Bank to Looped peptides,[3],0.5
same,Binding of Control serum Blood-bank to linear peptides,[3],0.8
same,Binding of Control serum LUMC to linear peptides,[3],0.6
same,Binding of Control serum LUMC to looped peptides,[3],0.7
